Assay [1] in a line: Antiproliferative activity against human EFM-192A cells assessed as reduction in cell growth measured for 24 hrs by MTT assay. Type of assay: functional, cell-based. In general terms: Tetrazolium dyes change colour on reduction, which living cells bring about.
For assay [2], the target named is Phosphatidylinositol 4,5-bisphosphate 3-kinase catalytic subunit alpha isoform (Homo sapiens, UniProt P42336). In words: Inhibition of PI3Kalpha (unknown origin).
Assay [3] addresses Serine/threonine-protein kinase mTOR (Homo sapiens, UniProt P42345). As to the kind of experiment: Inhibition of mTOR (unknown origin).
The test system of a further assay is MCF7. In words: Antiproliferative activity against human MCF7 cells assessed as reduction in cell viability by MTT assay. Type of assay: functional, cell-based.
The test system of a further assay is MDA-MB-231. In words: Antiproliferative activity against human MDA-MB-231 cells assessed as reduction in cell viability by MTT assay. Type of assay: functional, cell-based.
The nature of assay [4]: Growth inhibition of human Triple-negative breast cancer cell incubated for 24 hrs by MTT assay. Type of assay: functional.

Phosphatidylinositol 4,5-bisphosphate 3-kinase catalytic subunit alpha isoform, sequence (P42336 whole entry, canonical isoform): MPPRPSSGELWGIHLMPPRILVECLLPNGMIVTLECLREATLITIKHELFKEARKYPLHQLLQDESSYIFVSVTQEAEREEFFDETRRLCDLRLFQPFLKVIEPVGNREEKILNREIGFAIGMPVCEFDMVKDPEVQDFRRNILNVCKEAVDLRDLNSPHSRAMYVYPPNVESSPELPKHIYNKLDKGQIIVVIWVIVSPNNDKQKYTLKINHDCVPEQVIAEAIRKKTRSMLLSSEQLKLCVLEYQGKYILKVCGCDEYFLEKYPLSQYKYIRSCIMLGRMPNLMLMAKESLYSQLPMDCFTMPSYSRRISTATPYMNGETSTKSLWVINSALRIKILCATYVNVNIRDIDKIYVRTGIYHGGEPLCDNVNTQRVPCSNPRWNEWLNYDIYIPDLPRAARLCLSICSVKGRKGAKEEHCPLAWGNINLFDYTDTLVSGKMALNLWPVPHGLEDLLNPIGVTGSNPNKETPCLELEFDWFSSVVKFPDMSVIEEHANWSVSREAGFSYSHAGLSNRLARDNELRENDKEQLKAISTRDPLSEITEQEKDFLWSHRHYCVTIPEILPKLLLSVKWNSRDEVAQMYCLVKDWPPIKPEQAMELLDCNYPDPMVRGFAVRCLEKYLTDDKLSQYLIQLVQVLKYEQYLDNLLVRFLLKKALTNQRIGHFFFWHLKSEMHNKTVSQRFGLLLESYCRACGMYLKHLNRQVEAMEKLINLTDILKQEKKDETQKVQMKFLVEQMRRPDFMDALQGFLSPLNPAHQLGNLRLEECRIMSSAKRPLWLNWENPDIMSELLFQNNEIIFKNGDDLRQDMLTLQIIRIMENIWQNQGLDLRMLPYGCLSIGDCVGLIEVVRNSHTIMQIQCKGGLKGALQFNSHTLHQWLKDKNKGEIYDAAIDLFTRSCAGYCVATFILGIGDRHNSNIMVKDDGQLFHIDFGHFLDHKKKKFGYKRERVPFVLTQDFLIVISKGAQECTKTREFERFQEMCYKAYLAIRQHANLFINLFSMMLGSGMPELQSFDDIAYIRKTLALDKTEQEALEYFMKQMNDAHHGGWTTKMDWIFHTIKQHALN

With `COc1ccc(CCc2cc(OC)c(OC)c(OC)c2)cc1O`, the IC50 – broadly, the point on the concentration scale where inhibition reaches its midpoint – in assay [1] stood at 78.6 nM.
Consider `CS(=O)(=O)N1CCN(Cc2ccc(-c3nc(-c4ccc(NC(=O)Nc5cccnc5)cc4)nc(N4CCOCC4)n3)s2)CC1`, for which the concentration for half-maximal inhibition (IC50) in assay [2] came to 291 nM; in assay [3] it was 60.8 nM; in the assay on MCF7, 2 nM; in the assay on MDA-MB-231 it was 2 nM.
For `N#Cc1ccc(CN2C(=O)c3cc4ccccc4n3C[C@H]2C(=O)NCc2ccccc2)cc1`, in assay [4], growth was halved (GI50) at 2960 nM.
